Assay results reported in PubChem BioAssay (NCI).
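Step 1: Grow cells in 96-well plates. Step 2: Expose to compound for 48 hours at 5 concentrations. Step 3: Interpolate endpoints linearly; if unreached, use highest concentration. GI50 = concentration required for 50% inhibition of growth. Definition used: TGI = concentration required for complete inhibition of growth.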 Peptide text beside a SMILES is read from it. * marks the point of attachment. Boc = CC(C)(C)OC(=O)*

Legend:
Experiment in all cases: growth of human tumour cells (NCI), 48 h
HS 578T breast = test system: HS 578T breast
UACC-62 melanoma = test system: UACC-62 melanoma
HCT-116 colon = test system: HCT-116 colon
OVCAR-5 ovarian = test system: OVCAR-5 ovarian
CAKI-1 renal = test system: CAKI-1 renal
LOX IMVI melanoma = test system: LOX IMVI melanoma
SK-MEL-2 melanoma = test system: SK-MEL-2 melanoma
M14 melanoma = test system: M14 melanoma
U251 CNS = test system: U251 CNS
T-47D breast = test system: T-47D breast
OVCAR-4 ovarian = test system: OVCAR-4 ovarian
K-562 leukemia = test system: K-562 leukemia
SN12C renal = test system: SN12C renal
786-0 renal = test system: 786-0 renal
NCI-H522 lung = test system: NCI-H522 lung
CCRF-CEM leukemia = test system: CCRF-CEM leukemia
SW-620 colon = test system: SW-620 colon
OVCAR-3 ovarian = test system: OVCAR-3 ovarian
HOP-92 NSCLC = test system: HOP-92 NSCLC
MCF7 breast = test system: MCF7 breast
IGROV1 ovarian = test system: IGROV1 ovarian
NCI-H23 lung = test system: NCI-H23 lung
EKVX NSCLC = test system: EKVX NSCLC
MDA-MB-435 = test system: MDA-MB-435
SNB-75 CNS = test system: SNB-75 CNS
SK-OV-3 ovarian = test system: SK-OV-3 ovarian
SK-MEL-5 melanoma = test system: SK-MEL-5 melanoma
SF-268 CNS = test system: SF-268 CNS
A498 renal = test system: A498 renal
KM12 colon = test system: KM12 colon
NCI-H226 lung = test system: NCI-H226 lung
NCI/ADR-RES ovarian = test system: NCI/ADR-RES ovarian
SK-MEL-28 melanoma = test system: SK-MEL-28 melanoma
SF-539 CNS = test system: SF-539 CNS
A549 NSCLC = test system: A549 NSCLC
HCC-2998 colon = test system: HCC-2998 colon
NCI-H460 lung = test system: NCI-H460 lung
COLO 205 colon = test system: COLO 205 colon
OVCAR-8 ovarian = test system: OVCAR-8 ovarian
RPMI-8226 leukemia = test system: RPMI-8226 leukemia
UACC-257 melanoma = test system: UACC-257 melanoma
HOP-62 NSCLC = test system: HOP-62 NSCLC
MOLT-4 leukemia = test system: MOLT-4 leukemia
MDA-MB-231 breast = test system: MDA-MB-231 breast
HL-60(TB) leukemia = test system: HL-60(TB) leukemia
PC-3 prostate = test system: PC-3 prostate
TK-10 renal = test system: TK-10 renal
SNB-19 CNS = test system: SNB-19 CNS
HT29 colon = test system: HT29 colon
MALME-3M melanoma = test system: MALME-3M melanoma
SF-295 CNS = test system: SF-295 CNS
SR leukemia = test system: SR leukemia
HCT-15 colon = test system: HCT-15 colon
BT-549 breast = test system: BT-549 breast
DU-145 prostate = test system: DU-145 prostate

Question: CC(C)C(NC(=O)OC(C)(C)C)C(=O)N1CCCC1C(=O)O (stereo not drawn) (Boc-Val-Pro-OH; configuration not given here) was tested. Which GI50 (HS 578T breast) did it give?
Answer: 36.1 µg/mL

Question: What about the GI50 (UACC-62 melanoma) of the same molecule?
Answer: 94.1 µg/mL

Question: C[C@@H]1CC[C@@H]2[C@@H]1[C@H](OC(=O)/C=C/C1CCCCC1)[C@]1(C3CCCCC3)C[C@@H](OC(=O)CO)[C@@]2(C)O1 was tested. Which GI50 (HCT-116 colon) did it give?
Answer: 13.5 µM

Question: And the TGI (HCT-116 colon)?
Answer: 26.6 µM

Question: What about the GI50 (OVCAR-5 ovarian) of the same molecule?
Answer: 15.8 µM

Question: And the TGI (OVCAR-5 ovarian)?
Answer: 29.9 µM

Question: And the GI50 (CAKI-1 renal)?
Answer: 0.034 µM

Question: And the TGI (CAKI-1 renal)?
Answer: 14.8 µM

Question: What about the GI50 (LOX IMVI melanoma) of the same molecule?
Answer: 14.3 µM

Question: And the TGI (LOX IMVI melanoma)?
Answer: 27.1 µM

Question: And the GI50 (SK-MEL-2 melanoma)?
Answer: 15 µM

Question: What about the TGI (SK-MEL-2 melanoma) of the same molecule?
Answer: 28.5 µM

Question: And the GI50 (M14 melanoma)?
Answer: 14.8 µM

Question: And the TGI (M14 melanoma)?
Answer: 31.6 µM

Question: And the GI50 (U251 CNS)?
Answer: 13.7 µM

Question: And the TGI (U251 CNS)?
Answer: 26.1 µM

Question: And the GI50 (T-47D breast)?
Answer: 11.1 µM

Question: What about the TGI (T-47D breast) of the same molecule?
Answer: 24.1 µM

Question: What about the GI50 (OVCAR-4 ovarian) of the same molecule?
Answer: 13.1 µM

Question: What about the TGI (OVCAR-4 ovarian) of the same molecule?
Answer: 26.6 µM

Question: What about the GI50 (K-562 leukemia) of the same molecule?
Answer: 15.9 µM

Question: What about the TGI (K-562 leukemia) of the same molecule?
Answer: 35.9 µM

Question: And the GI50 (SN12C renal)?
Answer: 0.0321 µM

Question: What about the TGI (SN12C renal) of the same molecule?
Answer: 15.1 µM

Question: What about the GI50 (786-0 renal) of the same molecule?
Answer: 12 µM

Question: What about the TGI (786-0 renal) of the same molecule?
Answer: 24.1 µM

Question: What about the GI50 (NCI-H522 lung) of the same molecule?
Answer: 13.7 µM

Question: And the TGI (NCI-H522 lung)?
Answer: 27.1 µM

Question: And the GI50 (CCRF-CEM leukemia)?
Answer: 16.4 µM

Question: What about the TGI (CCRF-CEM leukemia) of the same molecule?
Answer: 34.7 µM

Question: And the GI50 (SW-620 colon)?
Answer: 15.5 µM

Question: What about the TGI (SW-620 colon) of the same molecule?
Answer: 29.8 µM

Question: And the GI50 (OVCAR-3 ovarian)?
Answer: 13.8 µM

Question: And the TGI (OVCAR-3 ovarian)?
Answer: 26.7 µM

Question: And the GI50 (HOP-92 NSCLC)?
Answer: 7.14 µM

Question: And the TGI (HOP-92 NSCLC)?
Answer: 19.6 µM

Question: What about the GI50 (MCF7 breast) of the same molecule?
Answer: 12.8 µM

Question: What about the TGI (MCF7 breast) of the same molecule?
Answer: 25.6 µM

Question: And the GI50 (IGROV1 ovarian)?
Answer: 14.4 µM

Question: And the TGI (IGROV1 ovarian)?
Answer: 29.8 µM

Question: And the GI50 (NCI-H23 lung)?
Answer: 16.6 µM

Question: And the TGI (NCI-H23 lung)?
Answer: 31.7 µM

Question: And the GI50 (EKVX NSCLC)?
Answer: 12.1 µM

Question: And the TGI (EKVX NSCLC)?
Answer: 24.4 µM

Question: What about the GI50 (MDA-MB-435) of the same molecule?
Answer: 15.5 µM

Question: And the TGI (MDA-MB-435)?
Answer: 31 µM

Question: What about the GI50 (SNB-75 CNS) of the same molecule?
Answer: 1.32 µM

Question: And the TGI (SNB-75 CNS)?
Answer: 16.5 µM

Question: And the GI50 (SK-OV-3 ovarian)?
Answer: 15 µM

Question: What about the TGI (SK-OV-3 ovarian) of the same molecule?
Answer: 27.7 µM

Question: And the GI50 (SK-MEL-5 melanoma)?
Answer: 14 µM

Question: What about the TGI (SK-MEL-5 melanoma) of the same molecule?
Answer: 26.6 µM

Question: What about the GI50 (SF-268 CNS) of the same molecule?
Answer: 0.859 µM

Question: What about the TGI (SF-268 CNS) of the same molecule?
Answer: 19.7 µM

Question: What about the GI50 (HS 578T breast) of the same molecule?
Answer: 0.0162 µM

Question: What about the TGI (HS 578T breast) of the same molecule?
Answer: 0.0556 µM

Question: And the GI50 (A498 renal)?
Answer: 0.0209 µM

Question: And the TGI (A498 renal)?
Answer: 0.0801 µM

Question: And the GI50 (KM12 colon)?
Answer: 14.8 µM

Question: What about the TGI (KM12 colon) of the same molecule?
Answer: 31.1 µM

Question: And the GI50 (NCI-H226 lung)?
Answer: 14.3 µM

Question: And the TGI (NCI-H226 lung)?
Answer: 28 µM

Question: What about the GI50 (NCI/ADR-RES ovarian) of the same molecule?
Answer: 0.579 µM

Question: What about the TGI (NCI/ADR-RES ovarian) of the same molecule?
Answer: 18.4 µM

Question: And the GI50 (SK-MEL-28 melanoma)?
Answer: 15.1 µM

Question: And the TGI (SK-MEL-28 melanoma)?
Answer: 29.6 µM

Question: And the GI50 (SF-539 CNS)?
Answer: 14.3 µM

Question: And the TGI (SF-539 CNS)?
Answer: 27.9 µM

Question: What about the GI50 (A549 NSCLC) of the same molecule?
Answer: 14.2 µM

Question: What about the TGI (A549 NSCLC) of the same molecule?
Answer: 27.1 µM

Question: And the GI50 (HCC-2998 colon)?
Answer: 16 µM

Question: What about the TGI (HCC-2998 colon) of the same molecule?
Answer: 29.6 µM

Question: And the GI50 (NCI-H460 lung)?
Answer: 14.6 µM

Question: And the TGI (NCI-H460 lung)?
Answer: 30 µM

Question: And the GI50 (COLO 205 colon)?
Answer: 15.4 µM

Question: What about the TGI (COLO 205 colon) of the same molecule?
Answer: 30 µM

Question: And the GI50 (OVCAR-8 ovarian)?
Answer: 10.7 µM

Question: What about the TGI (OVCAR-8 ovarian) of the same molecule?
Answer: 24.1 µM

Question: What about the GI50 (RPMI-8226 leukemia) of the same molecule?
Answer: 15.2 µM

Question: What about the TGI (RPMI-8226 leukemia) of the same molecule?
Answer: 34.5 µM

Question: And the GI50 (UACC-257 melanoma)?
Answer: 15.8 µM

Question: And the TGI (UACC-257 melanoma)?
Answer: 29.6 µM

Question: And the GI50 (HOP-62 NSCLC)?
Answer: 14.6 µM

Question: And the TGI (HOP-62 NSCLC)?
Answer: 27.5 µM

Question: And the GI50 (MOLT-4 leukemia)?
Answer: 13.7 µM

Question: And the TGI (MOLT-4 leukemia)?
Answer: 31.3 µM

Question: And the GI50 (UACC-62 melanoma)?
Answer: 13.5 µM

Question: What about the TGI (UACC-62 melanoma) of the same molecule?
Answer: 26.8 µM

Question: What about the GI50 (MDA-MB-231 breast) of the same molecule?
Answer: 15.4 µM

Question: And the TGI (MDA-MB-231 breast)?
Answer: 29.6 µM

Question: What about the GI50 (HL-60(TB) leukemia) of the same molecule?
Answer: 16.3 µM

Question: And the TGI (HL-60(TB) leukemia)?
Answer: 35.3 µM

Question: And the GI50 (PC-3 prostate)?
Answer: 11.5 µM

Question: And the TGI (PC-3 prostate)?
Answer: 24.3 µM

Question: What about the GI50 (TK-10 renal) of the same molecule?
Answer: 15.8 µM

Question: What about the TGI (TK-10 renal) of the same molecule?
Answer: 29.5 µM

Question: What about the GI50 (SNB-19 CNS) of the same molecule?
Answer: 14.4 µM

Question: And the TGI (SNB-19 CNS)?
Answer: 27 µM

Question: And the GI50 (HT29 colon)?
Answer: 13.1 µM

Question: What about the TGI (HT29 colon) of the same molecule?
Answer: 26.7 µM

Question: And the GI50 (MALME-3M melanoma)?
Answer: 14.5 µM

Question: What about the TGI (MALME-3M melanoma) of the same molecule?
Answer: 28.9 µM

Question: What about the GI50 (SF-295 CNS) of the same molecule?
Answer: 14.3 µM

Question: And the TGI (SF-295 CNS)?
Answer: 26.7 µM

Question: And the GI50 (SR leukemia)?
Answer: 14 µM

Question: What about the TGI (SR leukemia) of the same molecule?
Answer: 32.9 µM

Question: And the GI50 (HCT-15 colon)?
Answer: 14 µM

Question: What about the TGI (HCT-15 colon) of the same molecule?
Answer: 26.7 µM

Question: What about the GI50 (BT-549 breast) of the same molecule?
Answer: 0.0551 µM

Question: What about the TGI (BT-549 breast) of the same molecule?
Answer: 5.7 µM

Question: And the GI50 (DU-145 prostate)?
Answer: 14.3 µM

Question: What about the TGI (DU-145 prostate) of the same molecule?
Answer: 27.3 µM
